{
  "source": "paper PMC5148682",
  "about": "(European journal of medicinal chemistry, 2016)",
  "key": {"Human topoisomerase I": {"target": "T1, Human topoisomerase I (Homo sapiens, UniProt P11387)", "T1 sequence (P11387 1-765)": "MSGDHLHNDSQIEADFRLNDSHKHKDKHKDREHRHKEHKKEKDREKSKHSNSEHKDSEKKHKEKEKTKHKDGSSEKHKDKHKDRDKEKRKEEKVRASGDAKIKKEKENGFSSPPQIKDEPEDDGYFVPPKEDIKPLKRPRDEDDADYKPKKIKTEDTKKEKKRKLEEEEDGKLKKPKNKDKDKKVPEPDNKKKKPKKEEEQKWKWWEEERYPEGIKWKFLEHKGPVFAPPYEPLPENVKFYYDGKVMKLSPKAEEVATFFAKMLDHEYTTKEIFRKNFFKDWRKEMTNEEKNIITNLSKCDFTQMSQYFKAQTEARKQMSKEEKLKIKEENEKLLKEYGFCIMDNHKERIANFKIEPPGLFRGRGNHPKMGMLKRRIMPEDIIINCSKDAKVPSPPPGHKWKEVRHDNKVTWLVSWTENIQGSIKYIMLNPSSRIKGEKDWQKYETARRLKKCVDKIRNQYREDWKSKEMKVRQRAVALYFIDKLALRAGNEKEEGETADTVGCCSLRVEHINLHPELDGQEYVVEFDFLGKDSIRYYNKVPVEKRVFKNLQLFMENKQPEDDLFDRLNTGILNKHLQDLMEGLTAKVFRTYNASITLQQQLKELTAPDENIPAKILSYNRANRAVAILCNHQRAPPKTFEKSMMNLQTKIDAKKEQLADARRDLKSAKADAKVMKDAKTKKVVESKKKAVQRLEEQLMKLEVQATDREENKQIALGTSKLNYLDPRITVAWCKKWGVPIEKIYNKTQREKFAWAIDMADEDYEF", "test": "Human topoisomerase I relaxation inhibition assay", "format": "biochemical"}, "E. coli topoisomerase I": {"target": "E. coli topoisomerase I (Escherichia coli, UniProt P06612)", "sequence (P06612 whole entry)": "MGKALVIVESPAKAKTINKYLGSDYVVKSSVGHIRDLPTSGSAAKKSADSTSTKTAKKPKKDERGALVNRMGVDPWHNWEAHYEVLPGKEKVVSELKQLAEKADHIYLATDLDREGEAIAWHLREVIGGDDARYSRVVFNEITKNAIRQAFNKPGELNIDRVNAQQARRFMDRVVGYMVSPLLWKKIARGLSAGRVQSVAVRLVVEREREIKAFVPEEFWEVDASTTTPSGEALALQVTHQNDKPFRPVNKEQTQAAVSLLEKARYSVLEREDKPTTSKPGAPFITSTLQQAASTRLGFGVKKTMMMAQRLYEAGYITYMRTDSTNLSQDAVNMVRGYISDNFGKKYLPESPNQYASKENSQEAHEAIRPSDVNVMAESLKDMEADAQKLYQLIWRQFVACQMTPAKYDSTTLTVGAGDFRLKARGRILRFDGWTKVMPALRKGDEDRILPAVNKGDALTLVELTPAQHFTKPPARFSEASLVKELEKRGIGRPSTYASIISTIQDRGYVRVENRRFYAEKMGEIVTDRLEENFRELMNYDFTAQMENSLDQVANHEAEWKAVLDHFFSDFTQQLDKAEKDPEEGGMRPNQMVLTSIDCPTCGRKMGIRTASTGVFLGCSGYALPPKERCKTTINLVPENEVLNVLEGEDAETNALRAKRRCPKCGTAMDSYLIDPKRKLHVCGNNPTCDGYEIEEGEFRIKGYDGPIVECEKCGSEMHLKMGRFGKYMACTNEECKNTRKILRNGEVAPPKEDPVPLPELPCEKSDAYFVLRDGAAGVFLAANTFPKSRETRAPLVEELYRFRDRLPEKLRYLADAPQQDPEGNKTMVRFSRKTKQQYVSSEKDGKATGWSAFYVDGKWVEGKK", "test": "E. coli topoisomerase I relaxation activity inhibition assay", "format": "biochemical"}, "E. coli (MG1655) WT": {"system": "E. coli (MG1655) WT", "test": "MIC by broth microdilution, wild-type E. coli", "settings": "Escherichia coli, MG1655, read-out: Whole cell based antibacterial activity (MIC, µM) E. coli (MG1655) WT"}, "M tuberculosis (H37Rv)": {"system": "M tuberculosis (H37Rv)", "test": "MIC by modified microplate Alamar blue assay", "format": "cell-based"}},
  "data": [
    {"smiles": "Nc1ccc2c(c1)Oc1c(NCCN3CCOCC3)c(F)cc3c(=O)c(C(=O)O)cn-2c13", "note": "[Compound 11h, 9-Amino-5-fluoro-6-((2-morpholinoethyl)amino)-3-oxo-3H–pyrido[3,2,1-kl]phenoxazine-2-carboxylic acid]", "values": [
      {"measurement": "IC50", "setting": "Human topoisomerase I", "value": "7.8 to 15.6", "unit": "µM"}
    ]},
    {"smiles": "CC(=O)c1ccc2c(c1)Oc1c(F)c(F)cc3c(=O)c(C(=O)O)cn-2c13", "note": "[Compound 7d, 9-Acetyl-5,6-difluoro-3-oxo-3H–pyrido[3,2,1-kl] phenoxazine-2-carboxylic acid]", "values": [
      {"measurement": "fold less active than 1 against E. coli topoisomerase I", "setting": "E. coli topoisomerase I", "value": "8–16 fold"}
    ]},
    {"smiles": "Nc1ccc2c(c1)Oc1c(N3CC[C@@H](N)C3)c(F)cc3c(=O)c(C(=O)O)cn-2c13", "note": "[Compound 17b, (R)-9-amino-6-(3-aminopyrrolidin-1-yl)-5-fluoro-3-oxo-3H–pyrido[3,2,1-kl]phenoxazine-2-carboxylic acid]", "values": [
      {"measurement": "MIC", "setting": "E. coli (MG1655) WT", "value": "> 200", "unit": "µM"}
    ]},
    {"smiles": "O=C(O)c1cn2c3c(c(F)c(F)cc3c1=O)Oc1cc(C(F)(F)F)ccc1-2", "note": "[Compound 7c, 5,6-Difluoro-3-oxo-9-(trifluoromethyl)-3H–pyrido[3,2,1-kl]phenoxazine-2-carboxylic acid]", "values": [
      {"measurement": "IC50", "setting": "E. coli topoisomerase I; IC50 (µM), E. coli topoisomerase I, value as used in the CoMFA dataset (Table 2)", "value": "> 125", "unit": "µM"}
    ]},
    {"smiles": "O=C(O)c1cn2c3c(c(F)c(F)cc3c1=O)Oc1cc([N+](=O)[O-])c(Cl)cc1-2", "note": "[Compound 7e, 10-Chloro-5,6-difluoro-9-nitro-3-oxo-3H–pyrido[3,2,1-kl]phenoxazine-2-carboxylic acid]", "values": [
      {"measurement": "fold less active than 1 against E. coli topoisomerase I", "setting": "E. coli topoisomerase I", "value": "8–16 fold"}
    ]},
    {"smiles": "CCOC(=O)c1cn2c3c(c(F)c(F)cc3c1=O)Oc1cc(C(F)(F)F)ccc1-2", "note": "[Compound 6c, Ethyl 5,6-difluoro-3-oxo-9-(trifluoromethyl)-3H–pyrido[3,2,1-kl]phenoxazine-2-carboxylate]", "values": [
      {"measurement": "IC50", "setting": "E. coli topoisomerase I; pIC50, experimental, pIC50 = – logIC50, E. coli topoisomerase I", "value": "> 125", "unit": "µM"}
    ]},
    {"smiles": "Nc1ccc2c(c1)Oc1c(N3CC[C@H](N)C3)c(F)cc3c(=O)c(C(=O)O)cn-2c13", "note": "[Compound 17a, (S)-9-amino-6-(3-aminopyrrolidin-1-yl)-5-fluoro-3-oxo-3H–pyrido[3,2,1-kl]phenoxazine-2-carboxylic acid]", "values": [
      {"measurement": "Whole cell based antibacterial activity (MIC, µM) M tuberculosis (H37Rv)", "setting": "M tuberculosis (H37Rv); MABA", "value": ">63.1", "unit": "µM"},
      {"measurement": "MIC", "setting": "M tuberculosis (H37Rv); Mycobacterium tuberculosis, H37RV, read-out: Whole cell based antibacterial activity (MIC, µM) M tuberculosis (H37Rv)", "value": "> 63.1", "unit": "µM"}
    ]}
  ]
}
